These results are taken from patent US12286418B2, “Compounds and methods for treating or preventing bacterial infections” (priority 2019, dated 2025).

In general, Ki refers to the dissociation constant of the complex between target and ligand, obtained from inhibition or displacement.

One assay deals with OXA-48 (Klebsiella pneumoniae, UniProt Q6XEC0). Put plainly: OXA-48 inhibition assay using nitrocefin as reporter. Set-up: His-tag (N, cleaved yes); made in house; host or cells: E. coli BL21(DE3), pET28a. The note with it: for potency/activity against OXA-48 in words: purified OXA-48, compared with CDD-97 where a derivative. It counts as biochemical. Here is the method:
Nitrocefin, a chromogenic β-lactam substrate, was used as a reporter in all inhibition assays with the various OXA enzymes and various compounds. Nitrocefin is not stable in aqueous solution long-term. For these assays, nitrocefin stocks were prepared in DMSO, stored at −20° C. and used within 2 weeks of dissolving. To avoid freeze-thawing, fresh stocks were always used. The Km of nitrocefin was determined prior to inhibition assays by performing steady state kinetics. Assays were performed using a DU800 spectrophotometer at room temperature in 50 mM HEPES pH 7.5, 15 mM NaHCO3, and 0.02% tween 20 buffer. Hydrolyzed nitrocefin was detected at 482 nm. For a single experiment, a series of at least 5 nitrocefin concentrations were tested against the given enzyme in duplicate and the initial velocities were measured and fit to the Michaelis-Menten equation. Experiments were repeated twice, and error reported is the standard error of the mean.
Compounds were tested for inhibition of a given OXA enzyme from hydrolyzing nitrocefin using a Tecan plate reader. […] A control with no compound was included in each run. For each compound concentration, the velocity of nitrocefin hydrolysis was determined at 482 nm and fit to the Morrison equation. […] The average Ki of separate experiments, each of which consisted of duplicate runs, is reported and error was quantified as the standard deviation.
The activity of these derivatives was assessed using inhibition assays with purified OXA-48. Compounds were tested for the ability to inhibit OXA-48 from hydrolyzing nitrocefin, a chromogenic β-lactam substrate routinely used in β-lactamase inhibition assays. Nitrocefin contains a conjugated ring system that is readily hydrolyzed and produces a visible color shift from yellow to red upon hydrolysis (O'Callaghan, et al., 1972, Antimicrob. Agents Chemother. 1:283-288). The rate of nitrocefin hydrolysis in the presence of a constant amount of OXA-48 and increasing concentrations of a given compound of interest was monitored at 482 nm. These rates were plotted against compound concentration to determine the inhibition constant (Ki) against OXA-48. […] SPR was performed using 6×-His-OXA-48 enzyme that was amine-coupled on a Ni-NTA Chip. Meropenem, which covalently binds and inhibits OXA-48, was used as a positive control.

A further assay has as its system E. coli MG1655OXA-48. Put plainly: Bacterial susceptibility (MIC, broth microdilution) of E. coli expressing OXA-48. It counts as cell-based. The note with it: for MIC: Escherichia coli. The method, then:
Bacterial susceptibility was specifically tested using minimum inhibitory concentration assays. Susceptibility assays were performed with E. coli strains using broth in a microplate set up. Two-fold dilutions of antibiotic and/or inhibitor were used. For susceptibility tests, bacterial strains were transformed with plasmids containing OXA-48 with its endogenous signal sequence for periplasmic migration (cloned into pTP123 vector) (Majiduddin & Palzkill, 2003, Antimicrob. Agents Chemother. 47:1062-1067). pTP123 was cut with XbaI and SacI and the linearized fragment was assembled using Gibson assembly (New England Biolabs, Ipswich, MA) its signal sequence cloned in by using Gibson assembly. Bacteria were grown in Mueller-Hinton broth with 12.5 μg/mL chloramphenicol (plasmid marker) overnight. An overnight culture was diluted 1:10^4 into the final well solutions (100 uL total) and incubated for 16-18 hours. After incubation, microplates were read using a Tecan plate reader at absorbance 600. Growth was objectively defined as yielding an absorbance ≥2 times the absorbance of the negative control (media and no culture). Experiments were repeated with new bacterial inoculums each time.
Effective β-lactamase inhibitors synergize with β-lactam antibiotics and ultimately lower the minimum inhibitory concentration (MIC) of antibiotic needed to kill the bacteria. MIC studies were performed with ampicillin (AMP), a β-lactam antibiotic readily hydrolyzed by OXA-48, against E. coli strain MG1655 expressing OXA-48 (MG1655OXA-48). The OXA-48 plasmid construct contained the endogenous signal sequence of OXA-48 for secretion to the periplasm, which was expressed under a trc-promoter, allowing leaky expression in the absence of IPTG inducer. All MICs were performed by broth microdilution with 2-fold dilutions of antibiotic and/or inhibitor (FIG. 6A). The ampicillin (AMP) and imipenem (IMP) MICs were separately determined for a range of CDD-97 and avibactam concentrations. […] In the absence of bacteria, the media (Mueller Hinton) gives an absorbance reading of 0.04 so absorbance readings greater than or equal to two-fold the control were considered bacterial growth. […] CDD-97 was tested for its synergistic ability by determining AMP MICs with a range of CDD-97 concentrations (up to 256 μg/ml).
Impermeability of the outer membrane to small molecules is a major challenge for the development of therapeutics for Gram-negative bacterial infections. β-lactamases, including OXA-48, reside in the periplasmic space and so inhibitors must traverse the outer membrane to be effective. To determine whether low permeability caused the poor in vivo activity of CDD-97, an accumulation assay (Richter, et al., 2017, Nature 545:299-304) was performed to quantify the amount of CDD-97 present in E. coli cells after incubation. In the assay, tetracycline was used as a positive control while fusidic acid and clindamycin were used as negative controls (Richter, et al., 2017, Nature 545:299-304). Controls and CDD-97 were separately incubated with wildtype E. coli (MG1655) cells and then these cells were centrifuged through silicone oil to separate free, unaccumulated compound from the cell pellet. Cell lysates were collected by freeze-thawing and analyzed by mass spectrometry to quantify the amount of accumulated compound. Compared to tetracycline, CDD-97 was present in cells at 20-fold lower levels (FIG. 6B). […] The finding that CDD-97 accumulates inefficiently across the outer membrane was also examined by adding sub-lethal concentrations of colistin to the ampicillin/CDD-97 MIC assays. Colistin is known to disrupt the outer membrane and enhance permeability in E. coli. If the outer membrane is a barrier for CDD-97, it was predicted that the addition of sub-lethal concentrations of colistin would enhance the activity of CDD-97 against E. coli. […]
Background: Broth dilution looks for growth in wells or tubes with falling amounts of substance.

The mark [1] stands for this setting: purified OXA-48, nitrocefin hydrolysis, Morrison fit.

Several values for one entry are separate records, joined by “and”; a condition that tells them apart may be missing. Identical values can stand only once. Entries after “also recorded” stand apart in the source; their conditions may differ. Like-named read-outs stand apart in the source and are kept apart here.

Sequence of OXA-48 (Q6XEC0 23-265, looked up): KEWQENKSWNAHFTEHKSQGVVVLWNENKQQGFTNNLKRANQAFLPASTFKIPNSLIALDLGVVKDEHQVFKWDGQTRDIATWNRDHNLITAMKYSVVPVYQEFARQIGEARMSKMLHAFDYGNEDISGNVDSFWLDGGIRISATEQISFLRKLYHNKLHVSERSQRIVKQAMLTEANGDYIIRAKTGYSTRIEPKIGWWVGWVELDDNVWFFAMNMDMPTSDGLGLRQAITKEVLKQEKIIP

Consider `CS(=O)(=O)c1ccccc1N1CCN(c2ncnc(N3CCC(C(=O)O)CC3)n2)CC1` [CDD-181, 1-(4-(4-(2-(methylsulfonyl)phenyl)piperazin-1-yl)-1,3,5-triazin-2-yl)piperidine-4-carboxylic acid], for which the inhibition constant (Ki) at OXA-48 (setting [1]) turned out to be 3230 ± 390 nM.
Turning to `CCOc1ccccc1N1CCN(c2nc(NCCCCN)nc(N3CCC(C(=O)O)CC3)n2)CC1` [CDD-863], at OXA-48, the “potency/activity against OXA-48 in words” value was “does not have a large effect on potency”. Besides, the inhibition constant (Ki) on OXA-48 (setting [1]) worked out at 450 nM.
As to `CCOc1ccccc1N1CCN(c2nc(NCCN)nc(N3CCC(C(=O)O)CC3)n2)CC1` [CDD-864, 1-(4-((2-aminoethyl)amino)-6-(4-(2-ethoxyphenyl)piperazin-1-yl)-1,3,5-triazin-2-yl)piperidine-4-carboxylic acid], affinity on OXA-48 (setting [1]) was put at a Ki of 600 nM.
As to `CCOc1ccccc1N1CCN(c2ncnc(N3CCC(C(=O)O)C(N)C3)n2)CC1` (centres unmarked) [CDD-825], at OXA-48 (setting [1]), the inhibitory constant (Ki) is 17000 nM and 16900 nM. For the same compound, on OXA-48 (relative to CDD-97), the “fold reduction in potency (OXA-48 Ki) compared to CDD-97” value is “approximately 30 fold”.
`CCOc1ccccc1CCNc1ncnc(N2CCC(C(=O)O)CC2)n1` [CDD-375, 1-(4-((2-ethoxyphenethyl)amino)-1,3,5-triazin-2-yl)piperidine-4-carboxylic acid]: the Ki on OXA-48 (setting [1]) came to 7510 ± 230 nM.
`CCOc1ccccc1N1CCN(c2ncnc(N3CC(F)(C(=O)O)C3)n2)CC1` [CDD-96, 1-(4-(4-(2-ethoxyphenyl)piperazin-1-yl)-1,3,5-triazin-2-yl)-3-fluoroazetidine-3-carboxylic acid]: on OXA-48, the “potency/activity against OXA-48 in words” value is recorded as “potency was low”.
`CCOc1ccccc1OCCOc1ncnc(N2CCC(C(=O)O)CC2)n1` gave an inhibitory constant (Ki) at OXA-48 (setting [1]) of 18800 ± 2500 nM.
For `CCOc1ccccc1N1CCN(c2nc(N)nc(N3CCC(C(=O)O)CC3)n2)CC1` [CDD-616, 1-(4-amino-6-(4-(2-ethoxyphenyl)piperazin-1-yl)-1,3,5-triazin-2-yl)piperidine-4-carboxylic acid], the “potency/activity against OXA-48 in words” value on OXA-48 is reported as “does not have a large effect on potency; also recorded: retain potency; also recorded: did not affect potency”. Moreover, the Ki on OXA-48 (setting [1]) came to 520 ± 10 nM.
`O=C(O)C1CCN(c2ncnc(N3CCN(c4ccccc4OCC(F)(F)F)CC3)n2)CC1` [CDD-178, 1-(4-(4-(2-(2,2,2-trifluoroethoxy)phenyl)piperazin-1-yl)-1,3,5-triazin-2-yl)piperidine-4-carboxylic acid]: the inhibitory constant (Ki) on OXA-48 (setting [1]) is 1000 nM and 830 nM.
On to `C[C@@H](O)[C@H]1C(=O)N2C(C(=O)O)=C(SCCN=CN)C[C@H]12` [IMP, imipenem, reference compound], for which the MIC in the assay on E. coli MG1655OXA-48 (MG1655OXA48, read-out: IMP MIC, imipenem alone, no inhibitor) came out at 0.625 µg/mL.
For `CCOc1ccccc1N1CCN(c2ncnc(N3CCC(S(=O)(=O)O)CC3)n2)CC1` [CDD-862, 1-(4-(4-(2-ethoxyphenyl)piperazin-1-yl)-1,3,5-triazin-2-yl)piperidine-4-sulfonic acid], the Ki on OXA-48 (purified OXA-48, nitrocefin) worked out at 260 nM; at OXA-48 (setting [1]), 270 ± 20 nM.
In turn, `CCOc1ccccc1CCCNc1ncnc(N2CCC(C(=O)O)CC2)n1` [CDD-899] had a Ki on OXA-48 (setting [1]) of 15000 nM.
Still for that read-out and setting: next, `CCOc1ccccc1N1CCN(c2nc(N3CCC(C(=O)O)CC3)nc(N3CC(F)(C(=O)NC)C3)n2)CC1` [CDD-163, 1-(4-(4-(2-ethoxyphenyl)piperazin-1 yl)-6-(3-fluoro-3-(methylcarbamoyl)azetidin-1-yl)-1,3,5-triazin-2-yl)piperidine-4-carboxylic acid]: > 50000 nM.
In the case of colistin [reference compound], in the assay with E. coli MG1655OXA-48 (colistin, with or without AMP), the “colistin concentration at which bacteria were completely killed off regardless of the presence of AMP” value is “At ≥2 μg/mL colistin, bacteria were completely”.
For the compound `CC1(C)S[C@@H]2[C@H](NC(=O)[C@H](N)c3ccccc3)C(=O)N2[C@H]1C(=O)O` [AMP, ampicillin, reference compound], the MIC amounted to 512 µg/mL with E. coli MG1655OXA-48 (MG1655OXA48, read-out: AMP MIC, ampicillin alone, no inhibitor); 1020 µg/mL in the assay on E. coli MG1655OXA-48 (MG1655OXA48, read-out: AMP MICs, (−) CDD-97, colistin 0 μg/mL); 1020 µg/mL with E. coli MG1655OXA-48 (MG1655OXA48, read-out: AMP MICs, (−) CDD-97, colistin 0.0625 μg/mL); 1020 µg/mL in the assay with E. coli MG1655OXA-48 (MG1655OXA48, read-out: AMP MICs, (−) CDD-97, colistin 0.125 μg/mL); 512 µg/mL in the assay on E. coli MG1655OXA-48 (MG1655OXA48, read-out: AMP MICs, (−) CDD-97, colistin 0.25 μg/mL); 256 µg/mL with E. coli MG1655OXA-48 (MG1655OXA48, read-out: AMP MICs, (−) CDD-97, colistin 0.5 μg/mL). The MIC in the assay on E. coli MG1655OXA-48 (MG1655OXA48, read-out: AMP MICs, (−) CDD-97, colistin 1 μg/mL) stood at 256 µg/mL.
For the compound `NC(=O)[C@@H]1CC[C@@H]2CN1C(=O)N2OS(=O)(=O)O` [avibactam, reference compound], the “synergy with β-lactam antibiotics (effect on AMP/IMP MIC) in words” value in the assay on E. coli MG1655OXA-48 (E. coli expressing OXA-48, CDD-97 up to 256 μg/mL, avibactam up to 4 μg/mL) is “dose-dependent decrease in both the AMP and IMP MICs”. The MIC with E. coli MG1655OXA-48 (MG1655OXA48, read-out: AMP MIC, with 0.125 μg/mL avibactam) amounted to 256 µg/mL; in the assay on E. coli MG1655OXA-48 (MG1655OXA48, read-out: AMP MIC, with 1 μg/mL avibactam), 32 µg/mL; with E. coli MG1655OXA-48 (MG1655OXA48, read-out: AMP MIC, with 2 μg/mL avibactam), 16 µg/mL; in the assay on E. coli MG1655OXA-48 (MG1655OXA48, read-out: AMP MIC, with 4 μg/mL avibactam), 4 µg/mL; with E. coli MG1655OXA-48 (MG1655OXA48, read-out: AMP MIC, with .25 μg/mL avibactam), 128 µg/mL; in the assay on E. coli MG1655OXA-48 (MG1655OXA48, read-out: AMP MIC, with .5 μg/mL avibactam), 64 µg/mL. The MIC in the assay on E. coli MG1655OXA-48 (MG1655OXA48, read-out: IMP MIC, with 0.125 μg/mL avibactam) was determined as 0.312 µg/mL; in the assay on E. coli MG1655OXA-48 (MG1655OXA48, read-out: IMP MIC, with 1 μg/mL avibactam) it was 0.156 µg/mL; with E. coli MG1655OXA-48 (MG1655OXA48, read-out: IMP MIC, with 2 μg/mL avibactam), 0.156 µg/mL; in the assay on E. coli MG1655OXA-48 (MG1655OXA48, read-out: IMP MIC, with 4 μg/mL avibactam) it was 0.0781 µg/mL; in the assay on E. coli MG1655OXA-48 (MG1655OXA48, read-out: IMP MIC, with .25 μg/mL avibactam) it was 0.312 µg/mL; in the assay on E. coli MG1655OXA-48 (MG1655OXA48, read-out: IMP MIC, with .5 μg/mL avibactam) it was 0.156 µg/mL.
